Earlier results on one molecule are cited in patent publication US8673945B2, “Solid pharmaceutical composition comprising amlodipine and losartan” (Hanmi Science Co., Ltd, priority 2009, dated 2014).

As to `CCCCc1nc(Cl)c(CO)n1Cc1ccc(-c2ccccc2-c2nn[nH]n2)cc1` [losartan, 2-butyl-4-chloro-1-[[2′-(1H-tetrazol-5-yl)[1,1′-biphenyl]-4-yl]methyl]-1H-imidazol-5-methanol], the “reduction of Cmax of losartan after food ingestion” value is “about 10%”.
